Data taken from paper PMC4076210, “Discovery of Novel AKT Inhibitors with Enhanced Anti-Tumor Effects in Combination with the MEK Inhibitor” (PLoS ONE, 2014).
Like-named read-outs stand apart in the source and are kept apart here.

Tests used:
Format in all cases: biochemical
CHK2(h) = biological target: T1, CHK2(h) (Homo sapiens, UniProt O96017); test: Kinase panel
T1 construct: purchased Millipore KinaseProfiler

DRAK1(h) = biological target: T2, DRAK1(h) (Homo sapiens, UniProt Q9UEE5); test: Kinase panel
T2 construct: purchased Millipore KinaseProfiler
T2 sequence (Q9UEE5 1-414): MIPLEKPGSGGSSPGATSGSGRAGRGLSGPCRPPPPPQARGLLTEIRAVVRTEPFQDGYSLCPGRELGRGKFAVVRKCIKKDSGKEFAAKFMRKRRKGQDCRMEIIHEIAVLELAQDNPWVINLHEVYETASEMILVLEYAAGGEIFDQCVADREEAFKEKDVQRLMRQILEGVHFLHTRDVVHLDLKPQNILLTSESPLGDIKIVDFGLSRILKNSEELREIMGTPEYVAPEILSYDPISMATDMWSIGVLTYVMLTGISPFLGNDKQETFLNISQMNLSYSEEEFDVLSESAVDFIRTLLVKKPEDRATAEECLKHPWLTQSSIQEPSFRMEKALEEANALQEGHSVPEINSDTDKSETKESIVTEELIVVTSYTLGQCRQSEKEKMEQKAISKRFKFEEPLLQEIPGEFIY

GRK6(h) = biological target: T3, GRK6(h) (Homo sapiens, UniProt P43250); test: Kinase panel
T3 construct: purchased Millipore KinaseProfiler
T3 sequence (P43250 whole entry): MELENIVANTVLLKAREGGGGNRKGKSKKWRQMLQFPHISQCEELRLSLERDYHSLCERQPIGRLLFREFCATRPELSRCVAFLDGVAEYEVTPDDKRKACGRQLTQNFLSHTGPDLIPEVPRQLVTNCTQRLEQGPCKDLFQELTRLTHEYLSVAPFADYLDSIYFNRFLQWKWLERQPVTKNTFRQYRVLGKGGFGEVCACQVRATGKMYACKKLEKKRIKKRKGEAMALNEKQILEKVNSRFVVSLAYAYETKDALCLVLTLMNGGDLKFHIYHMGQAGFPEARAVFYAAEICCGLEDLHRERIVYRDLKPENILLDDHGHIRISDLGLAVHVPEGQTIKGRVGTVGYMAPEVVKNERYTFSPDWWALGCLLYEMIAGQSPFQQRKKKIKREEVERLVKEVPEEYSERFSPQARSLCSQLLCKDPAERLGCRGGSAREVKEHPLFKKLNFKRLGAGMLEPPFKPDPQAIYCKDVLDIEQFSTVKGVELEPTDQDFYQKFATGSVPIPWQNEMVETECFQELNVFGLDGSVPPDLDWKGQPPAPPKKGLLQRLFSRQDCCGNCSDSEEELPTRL

JNK2α2(h) = biological target: T4, JNK2α2(h) (Homo sapiens, UniProt P45984); test: Kinase panel
T4 construct: purchased Millipore KinaseProfiler
T4 sequence (P45984 whole entry): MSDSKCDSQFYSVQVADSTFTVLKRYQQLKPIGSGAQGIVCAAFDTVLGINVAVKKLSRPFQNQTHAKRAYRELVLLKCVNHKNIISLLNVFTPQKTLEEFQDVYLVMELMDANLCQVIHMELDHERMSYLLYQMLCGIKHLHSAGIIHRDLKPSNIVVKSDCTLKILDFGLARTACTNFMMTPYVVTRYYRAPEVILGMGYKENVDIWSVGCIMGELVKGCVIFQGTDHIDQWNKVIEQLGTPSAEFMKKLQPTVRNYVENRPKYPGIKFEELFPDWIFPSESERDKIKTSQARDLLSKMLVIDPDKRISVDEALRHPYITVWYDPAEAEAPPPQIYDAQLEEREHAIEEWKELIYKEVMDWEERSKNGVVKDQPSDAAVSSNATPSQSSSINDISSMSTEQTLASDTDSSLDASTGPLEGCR

MST2(h) = biological target: T5, MST2(h) (Homo sapiens, UniProt Q13188); test: Kinase panel
T5 construct: purchased Millipore KinaseProfiler
T5 sequence (Q13188 1-491): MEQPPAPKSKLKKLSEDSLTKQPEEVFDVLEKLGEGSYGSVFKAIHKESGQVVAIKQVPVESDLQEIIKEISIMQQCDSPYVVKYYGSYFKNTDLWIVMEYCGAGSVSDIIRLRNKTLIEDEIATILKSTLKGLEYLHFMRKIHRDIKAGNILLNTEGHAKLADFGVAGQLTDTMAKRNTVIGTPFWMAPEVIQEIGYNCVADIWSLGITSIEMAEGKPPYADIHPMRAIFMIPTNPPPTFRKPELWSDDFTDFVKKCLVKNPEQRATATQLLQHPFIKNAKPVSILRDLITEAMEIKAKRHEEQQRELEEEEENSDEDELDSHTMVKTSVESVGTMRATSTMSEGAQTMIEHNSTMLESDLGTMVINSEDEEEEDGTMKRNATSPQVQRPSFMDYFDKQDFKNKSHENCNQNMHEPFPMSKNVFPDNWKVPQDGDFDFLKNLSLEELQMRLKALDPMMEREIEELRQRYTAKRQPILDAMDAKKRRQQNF

PRAK(h) = biological target: T6, PRAK(h) (Homo sapiens, UniProt Q8IW41); test: Kinase panel
T6 construct: purchased Millipore KinaseProfiler
T6 sequence (Q8IW41 1-473): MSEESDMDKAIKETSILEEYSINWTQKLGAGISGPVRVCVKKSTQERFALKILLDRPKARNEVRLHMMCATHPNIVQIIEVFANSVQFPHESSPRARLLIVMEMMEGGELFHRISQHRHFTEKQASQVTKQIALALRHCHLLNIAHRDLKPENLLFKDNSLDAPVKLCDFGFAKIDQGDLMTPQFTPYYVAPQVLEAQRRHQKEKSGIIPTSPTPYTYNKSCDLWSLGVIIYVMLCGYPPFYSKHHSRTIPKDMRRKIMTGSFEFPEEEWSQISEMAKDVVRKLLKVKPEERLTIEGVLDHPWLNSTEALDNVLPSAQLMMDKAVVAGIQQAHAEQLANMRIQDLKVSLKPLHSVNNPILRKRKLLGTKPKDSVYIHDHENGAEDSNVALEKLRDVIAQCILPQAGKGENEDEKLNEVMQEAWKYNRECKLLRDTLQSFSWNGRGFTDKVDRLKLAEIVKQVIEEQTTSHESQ

PrKX(h) = biological target: T7, PrKX(h) (Homo sapiens, UniProt P51817); test: Kinase panel
T7 construct: purchased Millipore KinaseProfiler
T7 sequence (P51817 1-358): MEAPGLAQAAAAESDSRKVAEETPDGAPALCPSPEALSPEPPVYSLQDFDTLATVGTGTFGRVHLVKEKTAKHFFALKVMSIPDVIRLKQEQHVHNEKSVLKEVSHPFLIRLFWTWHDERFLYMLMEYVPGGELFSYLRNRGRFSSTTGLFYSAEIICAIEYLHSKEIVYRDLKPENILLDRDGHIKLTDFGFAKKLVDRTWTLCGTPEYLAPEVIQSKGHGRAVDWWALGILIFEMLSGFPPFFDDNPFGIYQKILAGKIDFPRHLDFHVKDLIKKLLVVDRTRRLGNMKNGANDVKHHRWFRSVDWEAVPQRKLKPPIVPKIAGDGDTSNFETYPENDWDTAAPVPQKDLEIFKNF

ROCK-I(h) = biological target: T8, ROCK-I(h) (Homo sapiens, UniProt Q13464); test: Kinase panel
T8 construct: purchased Millipore KinaseProfiler
T8 sequence (Q13464 whole entry): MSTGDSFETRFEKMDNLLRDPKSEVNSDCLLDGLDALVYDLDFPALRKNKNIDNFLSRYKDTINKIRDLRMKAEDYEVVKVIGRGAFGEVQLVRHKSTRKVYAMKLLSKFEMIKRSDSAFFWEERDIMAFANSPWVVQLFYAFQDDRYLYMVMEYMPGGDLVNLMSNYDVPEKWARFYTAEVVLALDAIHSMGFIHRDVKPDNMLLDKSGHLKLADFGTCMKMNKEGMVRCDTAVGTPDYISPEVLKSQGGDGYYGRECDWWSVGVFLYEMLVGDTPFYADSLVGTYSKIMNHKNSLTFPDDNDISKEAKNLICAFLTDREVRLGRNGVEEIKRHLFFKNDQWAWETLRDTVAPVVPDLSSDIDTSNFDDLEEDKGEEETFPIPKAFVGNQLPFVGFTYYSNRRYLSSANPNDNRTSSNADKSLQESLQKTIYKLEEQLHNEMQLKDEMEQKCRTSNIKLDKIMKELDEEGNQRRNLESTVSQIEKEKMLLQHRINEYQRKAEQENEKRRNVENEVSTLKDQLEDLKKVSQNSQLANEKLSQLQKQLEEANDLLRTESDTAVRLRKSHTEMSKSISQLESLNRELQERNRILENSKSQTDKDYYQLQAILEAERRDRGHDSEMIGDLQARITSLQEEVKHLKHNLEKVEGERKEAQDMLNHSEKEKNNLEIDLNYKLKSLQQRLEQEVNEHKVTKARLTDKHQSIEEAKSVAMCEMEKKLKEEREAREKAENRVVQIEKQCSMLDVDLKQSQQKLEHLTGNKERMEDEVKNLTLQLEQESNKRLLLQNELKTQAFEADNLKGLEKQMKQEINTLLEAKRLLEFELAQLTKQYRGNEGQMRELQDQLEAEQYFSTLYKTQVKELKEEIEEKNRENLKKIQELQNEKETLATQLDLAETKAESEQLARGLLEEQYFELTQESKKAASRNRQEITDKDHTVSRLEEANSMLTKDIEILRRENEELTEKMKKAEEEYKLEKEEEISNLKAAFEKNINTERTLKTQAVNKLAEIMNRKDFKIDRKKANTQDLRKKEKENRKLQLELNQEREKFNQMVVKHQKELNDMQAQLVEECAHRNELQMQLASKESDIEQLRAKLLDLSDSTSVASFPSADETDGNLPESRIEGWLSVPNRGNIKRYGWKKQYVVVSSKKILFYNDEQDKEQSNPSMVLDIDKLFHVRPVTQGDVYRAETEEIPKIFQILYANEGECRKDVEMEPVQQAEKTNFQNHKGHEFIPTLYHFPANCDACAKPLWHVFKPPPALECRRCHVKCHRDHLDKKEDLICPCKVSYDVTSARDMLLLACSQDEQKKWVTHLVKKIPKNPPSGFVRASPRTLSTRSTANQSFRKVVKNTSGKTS

Rsk1(h) = biological target: T9, Rsk1(h) (Homo sapiens, UniProt Q15418); test: Kinase panel
T9 construct: purchased Millipore KinaseProfiler
T9 sequence (Q15418 whole entry): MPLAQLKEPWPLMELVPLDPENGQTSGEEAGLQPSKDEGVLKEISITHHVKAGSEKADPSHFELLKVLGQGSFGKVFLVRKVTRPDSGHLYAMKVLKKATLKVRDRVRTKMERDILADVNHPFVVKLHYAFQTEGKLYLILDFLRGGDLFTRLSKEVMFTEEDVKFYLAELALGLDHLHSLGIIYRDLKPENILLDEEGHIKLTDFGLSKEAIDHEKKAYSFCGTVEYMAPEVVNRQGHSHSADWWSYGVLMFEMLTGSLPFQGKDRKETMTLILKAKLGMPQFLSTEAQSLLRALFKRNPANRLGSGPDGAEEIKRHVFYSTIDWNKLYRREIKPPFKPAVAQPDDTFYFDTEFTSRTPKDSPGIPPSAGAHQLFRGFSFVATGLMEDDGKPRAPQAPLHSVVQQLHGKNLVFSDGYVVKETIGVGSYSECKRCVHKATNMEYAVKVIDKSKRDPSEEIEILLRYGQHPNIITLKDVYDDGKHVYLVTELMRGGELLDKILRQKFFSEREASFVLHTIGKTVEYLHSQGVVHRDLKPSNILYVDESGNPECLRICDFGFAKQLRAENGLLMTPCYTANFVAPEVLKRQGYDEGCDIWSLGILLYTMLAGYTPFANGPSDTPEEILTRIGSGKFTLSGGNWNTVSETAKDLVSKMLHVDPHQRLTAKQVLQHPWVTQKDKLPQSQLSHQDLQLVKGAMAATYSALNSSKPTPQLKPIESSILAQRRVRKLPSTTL

PKG1β = PKG1β (Homo sapiens, UniProt Q13976); test: Kinase IC50 assay
Chain of PKG1β (Q13976 1-686 isoform Q13976-2): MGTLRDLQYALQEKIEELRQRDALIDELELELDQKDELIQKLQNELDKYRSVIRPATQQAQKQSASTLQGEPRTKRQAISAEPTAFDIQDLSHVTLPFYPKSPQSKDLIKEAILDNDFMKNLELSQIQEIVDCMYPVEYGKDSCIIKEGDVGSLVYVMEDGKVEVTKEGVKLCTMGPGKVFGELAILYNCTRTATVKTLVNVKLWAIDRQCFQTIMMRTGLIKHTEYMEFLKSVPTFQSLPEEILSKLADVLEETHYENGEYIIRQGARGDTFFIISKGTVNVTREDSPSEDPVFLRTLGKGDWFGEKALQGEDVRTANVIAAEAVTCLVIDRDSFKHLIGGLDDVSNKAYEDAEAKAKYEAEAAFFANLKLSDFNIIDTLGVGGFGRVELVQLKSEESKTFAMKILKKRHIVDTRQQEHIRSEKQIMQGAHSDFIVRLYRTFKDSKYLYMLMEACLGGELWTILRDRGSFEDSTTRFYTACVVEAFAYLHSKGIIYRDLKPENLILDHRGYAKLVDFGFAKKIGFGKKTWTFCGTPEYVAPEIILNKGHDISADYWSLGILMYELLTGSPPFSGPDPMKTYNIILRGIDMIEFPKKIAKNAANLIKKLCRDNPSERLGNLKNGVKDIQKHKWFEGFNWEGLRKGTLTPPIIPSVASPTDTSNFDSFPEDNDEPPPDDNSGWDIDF

T1 sequence (O96017 whole entry): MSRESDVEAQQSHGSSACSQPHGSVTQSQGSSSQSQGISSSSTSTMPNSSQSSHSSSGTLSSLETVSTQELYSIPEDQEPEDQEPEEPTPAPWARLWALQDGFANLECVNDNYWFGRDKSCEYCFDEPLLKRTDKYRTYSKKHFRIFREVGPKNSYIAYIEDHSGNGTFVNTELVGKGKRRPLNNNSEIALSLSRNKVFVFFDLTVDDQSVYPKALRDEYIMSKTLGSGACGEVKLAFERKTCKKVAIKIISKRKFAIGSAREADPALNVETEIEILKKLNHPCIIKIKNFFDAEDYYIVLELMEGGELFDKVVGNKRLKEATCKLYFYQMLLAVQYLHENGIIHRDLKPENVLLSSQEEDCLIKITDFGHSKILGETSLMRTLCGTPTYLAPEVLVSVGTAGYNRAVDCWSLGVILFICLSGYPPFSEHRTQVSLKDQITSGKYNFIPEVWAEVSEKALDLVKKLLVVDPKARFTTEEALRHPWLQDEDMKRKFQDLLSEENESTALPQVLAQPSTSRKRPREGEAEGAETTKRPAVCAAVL

Cn1ncc(Cl)c1-c1cc(C(=O)N[C@H](CN)Cc2cccc(F)c2)sc1Cl [GSK2110183]
inhibition at 0.5 µM (CHK2(h)): 39%
inhibition at 10 µM (CHK2(h)): 97%
inhibition at 0.5 µM (DRAK1(h)): 10%
inhibition at 10 µM (DRAK1(h)): 40%
inhibition at 0.5 µM (GRK6(h)): -8%
inhibition at 10 µM (GRK6(h)): 10%
inhibition at 0.5 µM (JNK2α2(h)): -15%
inhibition at 10 µM (JNK2α2(h)): -13%
inhibition at 0.5 µM (MST2(h)): -4%
inhibition at 10 µM (MST2(h)): -2%
inhibition at 0.5 µM (PRAK(h)): -35%
inhibition at 10 µM (PRAK(h)): -57%
inhibition at 0.5 µM (PrKX(h)): 70%
inhibition at 10 µM (PrKX(h)): 96%
inhibition at 0.5 µM (ROCK-I(h)): 12%
inhibition at 10 µM (ROCK-I(h)): 77%
inhibition at 0.5 µM (Rsk1(h)): 49%
inhibition at 10 µM (Rsk1(h)): 89%
IC50 (PKG1β): 4 nM

Cn1ncc(Cl)c1-c1cc(C(=O)N[C@H](CN)Cc2ccc(F)c(F)c2)oc1Cl [GSK2141795]
inhibition at 0.5 µM (CHK2(h); 0.5 µM, read-out: % Inhibition): 36%
inhibition at 10 µM (CHK2(h); 10 µM, read-out: % Inhibition): 91%
inhibition at 0.5 µM (DRAK1(h); 0.5 µM, read-out: % Inhibition): -18%
inhibition at 10 µM (DRAK1(h); 10 µM, read-out: % Inhibition): 24%
inhibition at 0.5 µM (GRK6(h); 0.5 µM, read-out: % Inhibition): -16%
inhibition at 10 µM (GRK6(h); 10 µM, read-out: % Inhibition): 26%
inhibition at 0.5 µM (JNK2α2(h); 0.5 µM, read-out: % Inhibition): -15%
inhibition at 10 µM (JNK2α2(h); 10 µM, read-out: % Inhibition): -23%
inhibition at 0.5 µM (MST2(h); 0.5 µM, read-out: % Inhibition): -2%
inhibition at 10 µM (MST2(h); 10 µM, read-out: % Inhibition): 4%
inhibition at 0.5 µM (PRAK(h); 0.5 µM, read-out: % Inhibition): 2%
inhibition at 10 µM (PRAK(h); 10 µM, read-out: % Inhibition): -17%
inhibition at 0.5 µM (PrKX(h); 0.5 µM, read-out: % Inhibition): 91%
inhibition at 10 µM (PrKX(h); 10 µM, read-out: % Inhibition): 98%
inhibition at 0.5 µM (ROCK-I(h); 0.5 µM, read-out: % Inhibition): 18%
inhibition at 10 µM (ROCK-I(h); 10 µM, read-out: % Inhibition): 71%
inhibition at 0.5 µM (Rsk1(h); 0.5 µM, read-out: % Inhibition): 44%
inhibition at 10 µM (Rsk1(h); 10 µM, read-out: % Inhibition): 91%
IC50 (PKG1β): < 1 nM
